Experimental findings from patent publication US20190047983A1, “MODIFIED PROCESS FOR THE PREPARATION OF CERITINIB AND AMORPHOUS FORM OF CERITINIB” (NATCO PHARMA LIMITED, priority 2016, published 2019) are described below.

This data set is described as follows: Stability of the amorphous form, confirmed by PXRD, DSC and TGA. The note with it: solid amorphous form. The class given is physicochemical. The source says:
According to the present invention, the obtained amorphous form of Ceritinib is stable up to 180 days. The stability of the amorphous form is confirmed by PXRD, DSC and TGA.
FIG. 2: Powder X-ray diffractogram of an amorphous form of ceritinib of 180 days

As to `Cc1cc(Nc2ncc(Cl)c(Nc3ccccc3S(=O)(=O)C(C)C)n2)c(OC(C)C)cc1C1CCNCC1` [amorphous form of Ceritinib], the “stability towards polymorphic conversion” value is given as “stable towards polymorphic conversion”. The “stability of the amorphous form (time for which it is stable)” value (confirmed by PXRD, DSC and TGA, storage conditions not given) is on record as “up to 180 days”.
